*1 amine or outer side, *2 acyl side, *3 side chain or, on linkers, in order; H or OH if unused. Where a SMILES comes first, the peptide text is derived from it. Bridges are numbered along the chain shown (N, C = ends). Side-chain parts run from the residue outwards. [ ]: non-standard residue; d: D form. The star is where a group is joined. X1 = NC(=O)[C@@H](OC(=O)c1ccc(N2CCOCC2)nc1)[C@H](N[*:1])C(=O)[*:2]; Phe(3R-OH) = O=C([C@@H](N[*:1])[C@H](O[*:3])c1ccccc1)[*:2]; X2 = NC(=O)[C@@H](OC(=O)Nc1ccccc1)[C@H](N[*:1])C(=O)[*:2]; NH(4-morpholinophenyl) = c1cc(N2CCOCC2)ccc1N*; Asn(3S-OH) = NC(=O)[C@@H](O)[C@H](N)C(=O)O; Leu(3R-OH) = CC(C)[C@@H](O)[C@H](N)C(=O)O; aThr = C[C@H](O)[C@H](N)C(=O)O; CO = O=C([*:1])[*:2]

One test relates to E. faecalis ICB 27159. In kind it is cell-based, Entercococcus faecalis. The procedure:
(§1) Determination of the Minimum Inhibitory Concentration (MIC): The MIC is determined in the liquid dilution test in accordance with the NCCLS guidelines. […] The cultures are incubated at 37° C. for 18-24 hours, S. pneumoniae in the presence of 10% CO2. The lowest substance concentration in each case at which no visible bacterial growth occurs any more is defined as the MIC. The MIC values are reported in μg/ml.

In test [1] the test system is Staphylococcus aureus 133. The format is cell-based. The procedure:
as §1

For a further test, the system named is E. faecium L4001. The format is cell-based. The procedure: as §1
In test [2] the test system is Streptococcus pneumoniae G9a. In kind it is cell-based. The procedure:
as §1

Take `CC[C@H](C)[C@@H]1NC(=O)[C@@H](CCCNC(=N)N)NC(=O)[C@H](CC(C)C)NC(=O)[C@H]([C@H](O)C(C)C)NC(=O)[C@@H](NC(=O)[C@H](CC(C)C)NC(=O)[C@H](N)CC(C)C)[C@@H](c2ccccc2)OC(=O)[C@H](CO)NC(=O)[C@H]([C@H](OC(=O)Nc2ccccc2)C(N)=O)NC(=O)CNC(=O)[C@H]([C@H](C)O)NC1=O.O=C(O)C(F)(F)F.O=C(O)C(F)(F)F` [Example 2] (H-[dL]L[Phe(3R-OH)][Leu(3R-OH)]L[dR]I[aThr]G[X2]S; ester 3-C): in the test with E. faecalis ICB 27159, the “MIC E. faecalis ICB 27159” value stood at 1 µg/mL. The “MIC S. aureus 133” value in test [1] turned out to be 0.5 µg/mL. In the test on E. faecium L4001, the “MIC E. faecium L4001” value came out at 4 µg/mL. Moreover, the “MIC S. pneumoniae G9a” value in test [2] came to 1 µg/mL.
For the compound `CC[C@H](C)[C@@H]1NC(=O)[C@@H](CCCNC(=N)NC(=O)Nc2ccc(N3CCOCC3)cc2)NC(=O)[C@H](CC(C)C)NC(=O)[C@H]([C@H](O)C(C)C)NC(=O)[C@@H](NC(=O)[C@H](CC(C)C)NC(=O)[C@H](N)CC(C)C)[C@@H](c2ccccc2)OC(=O)[C@H](CO)NC(=O)[C@H]([C@H](O)C(N)=O)NC(=O)CNC(=O)[C@H]([C@H](C)O)NC1=O.O=C(O)C(F)(F)F` [Example 11] (H-[dL]L[Phe(3R-OH)][Leu(3R-OH)]L[dR]([CO-NH(4-morpholinophenyl)])I[aThr]G[Asn(3S-OH)]S; ester 3-C), in the test with E. faecalis ICB 27159, the “MIC E. faecalis ICB 27159” value amounted to 0.5 µg/mL. The “MIC S. aureus 133” value in test [1] was found to be 0.5 µg/mL. For the same compound, the “MIC E. faecium L4001” value against E. faecium L4001 was 1 µg/mL. Also, the “MIC S. pneumoniae G9a” value in test [2] was found to be 0.5 µg/mL.
For the compound `CC[C@H](C)[C@@H]1NC(=O)[C@@H](CCCNC(=N)N)NC(=O)[C@H](CC(C)C)NC(=O)[C@H]([C@H](O)C(C)C)NC(=O)[C@@H](NC(=O)[C@H](CC(C)C)NC(=O)[C@H](N)CC(C)C)[C@@H](c2ccccc2)OC(=O)[C@H](CO)NC(=O)[C@H]([C@H](OC(=O)c2ccc(N3CCOCC3)nc2)C(N)=O)NC(=O)CNC(=O)[C@H]([C@H](C)O)NC1=O.O=C(O)C(F)(F)F.O=C(O)C(F)(F)F` [Example 17] (H-[dL]L[Phe(3R-OH)][Leu(3R-OH)]L[dR]I[aThr]G[X1]S; ester 3-C), in the test on E. faecalis ICB 27159, the “MIC E. faecalis ICB 27159” value is 2 µg/mL. Moreover, in test [1], the “MIC S. aureus 133” value is 0.5 µg/mL. Besides, in the test on E. faecium L4001, the “MIC E. faecium L4001” value stood at 4 µg/mL. In addition, the “MIC S. pneumoniae G9a” value in test [2] is 0.5 µg/mL.

These data come from US7786079B2, “Substituted nonadepsipeptides” (priority 2004, dated 2010).
